According to patent US10800741B2 (ANCUREALL PHARMACEUTICAL (SHANGHAI) CO., LTD., priority 2017, dated 2020):
One block for each compound: values may come before it.

What was measured:
HGC-27 = assay: In vitro growth inhibition of PI3KCA amplified/mutant tumor cells HGC-27; type: cell-based; conditions: Homo sapiens, HGC-27, read-out: IC50 growth inhibition
Procedure: (§1) Suspension culture cells were collected by centrifugation (1700 rpm, 3 minutes). The supernatant was discarded and the cells were counted. According to each cell growth cycle, different concentrations of cells were prepared (5˜10×10^4 cells per ml), and inoculated to 96-well plates (Corning), with 100 μl per well, and incubated overnight at 37° C., 5% CO2. The next day, the test compound was added to the cultured cells (2 wells in parallel). The final concentration of the solvent was less than 1/1,000. The cells were further cultured for 3 to 5 days and assayed by MTT.
(§2) The adherent cells were taken out from the cell culture medium, and immediately added to a freshly prepared complete medium containing 10% CCK8 (5% FBS), 100 ul per hole. The suspended cells were directly added to a CCK8 reagent until reaching a final concentration of 10% and cultured for 1 to 4 hours.
(§3) T=optical density of drug-treated cell wells−optical density of blank control wells; T0=optical density of cell wells before drug treatment−optical density of blank control wells; C=optical density of solvent control wells−optical density of blank control wells. […] The experiments were repeated 1 to 3 times and a statistical analysis of data was conducted.

HCT116 = assay: In vitro growth inhibition of PI3KCA amplified/mutant tumor cells HCT116; type: cell-based; conditions: Homo sapiens, HCT-116, read-out: IC50 growth inhibition
Procedure: as §1, §2, §3

SK-OV-3 = assay: In vitro growth inhibition of PI3KCA amplified/mutant tumor cells SK-OV-3; type: cell-based; conditions: Homo sapiens, SK-OV-3, read-out: IC50 growth inhibition
Procedure: as §1, §2, §3

SW48 = assay: In vitro growth inhibition of PI3KCA amplified/mutant tumor cells SW48; type: cell-based; conditions: Homo sapiens, SW48, read-out: IC50 growth inhibition
Procedure: as §1, §2, §3

HCC1954 = assay: In vitro growth inhibition of PI3KCA amplified/mutant tumor cells HCC1954; type: cell-based; conditions: Homo sapiens, HCC1954, read-out: IC50 growth inhibition
Procedure: as §1, §2, §3

A2780 = assay: In vitro growth inhibition of PI3KCA amplified/mutant tumor cells A2780; type: cell-based; conditions: Homo sapiens, A2780, read-out: IC50 growth inhibition
Procedure: as §1, §2, §3

AGS = assay: In vitro growth inhibition of PI3KCA amplified/mutant tumor cells AGS; type: cell-based; conditions: Homo sapiens, read-out: IC50 growth inhibition
Procedure: as §1, §2, §3

KYSE70 = assay: In vitro growth inhibition of PI3KCA amplified/mutant tumor cells KYSE70; type: cell-based; conditions: Homo sapiens, KYSE-70, read-out: IC50 growth inhibition
Procedure: as §1, §2, §3

NCI-H460 = assay: In vitro growth inhibition of PI3KCA amplified/mutant tumor cells NCI-H460; type: cell-based; conditions: Homo sapiens, NCI-H460, read-out: IC50 growth inhibition
Procedure: as §1, §2, §3

JIMT-1 = assay: In vitro growth inhibition of JIMT-1 cells; type: cell-based; conditions: Homo sapiens, FGFR1 amp, HER2 amp, PI3KCA C420R
Procedure: as §1, with “Adherent cells were digested with 0.25% trypsin-EDTA (Gibco). Suspension” for “Suspension”
(§4) The MTT test reagent was a Dojindo CCK8 kit and the Microplate Reader was a THERMO […] FC instrument.
(§5) The adherent cells were taken out from the cell culture medium, and immediately added to a freshly prepared complete medium containing 10% CCK8 (5% FBS), 100 ul per hole. The suspended cells were directly added to a CCK8 reagent until reaching a final concentration of 10% and cultured for 1 to 4 hours. When a dark yellow color could be observed in the solvent control wells, the absorbance value at OD450 nm was measured and the cell growth rate was calculated according to the following formula: Cell Growth Rate (%)=100×(T−T0)/(C−T0)
as §3
(§6) Mutations in the FGFR1-4 gene often occur in different types of cancer patients. In order to test the growth inhibition activity of the present compound against tumor cells expressing different FGFR variants, tumor cell lines expressing representative FGFR1-4 were selected for further determining the activity of compounds 25, 66, 38 and 95 of the present invention. BGJ398, a selective inhibitor of FGFR1-4, was used as the control compound. The specific test method is the same as test example 1.

Huh-7 = assay: In vitro growth inhibition of Huh-7 cells; type: cell-based; conditions: Homo sapiens, FGFR3+++, FGFR4 +++
Procedure: as §1, with “Adherent cells were digested with 0.25% trypsin-EDTA (Gibco). Suspension” for “Suspension”
as §4, §5, §3, §6

KCL-22 (BCR-ABL) = assay: In vitro growth inhibition of KCL-22 tumor cells (MTT/CCK8); type: cell-based, Human; conditions: Homo sapiens, KCL-22; in vitro growth inhibition (or induction of apoptosis), cells cultured 3 to 5 days, MTT (CCK8); read-out: IC50 KCL-22 (BCR-ABL)
Kasumi-1 (KIT N822K) = assay: In vitro growth inhibition of Kasumi-1 tumor cells (MTT/CCK8); type: cell-based, Human; conditions: Homo sapiens, Kasumi 1; in vitro growth inhibition (or induction of apoptosis), cells cultured 3 to 5 days, MTT (CCK8); read-out: IC50 Kasumi-1 (KIT N822K)
H1581 (FGFR1 amp) = assay: In vitro growth inhibition of H1581 tumor cells (MTT/CCK8); type: cell-based, Human; conditions: Homo sapiens, NCI-H1581; in vitro growth inhibition (or induction of apoptosis), cells cultured 3 to 5 days, MTT (CCK8); read-out: IC50 H1581 (FGFR1 amp)
MFM-223 = assay: In vitro growth inhibition of MFM-223 cells; type: cell-based; conditions: Homo sapiens, PI3KCA H1047R, FGFR1 amp, FGFR2 amp
Procedure: as §1, with “Adherent cells were digested with 0.25% trypsin-EDTA (Gibco). Suspension” for “Suspension”
as §4, §5, §3, §6

Karpas 299 (NPM-ALK) = assay: In vitro growth inhibition of Karpas 299 tumor cells (MTT/CCK8); type: cell-based, Human; conditions: Homo sapiens, KARPAS-299; in vitro growth inhibition (or induction of apoptosis), cells cultured 3 to 5 days, MTT (CCK8); read-out: IC50 Karpas 299 (NPM-ALK)
SNU-16 = assay: In vitro growth inhibition of SNU-16 cells; type: cell-based; conditions: Homo sapiens, FGFR2 amp
Procedure: as §1, with “Adherent cells were digested with 0.25% trypsin-EDTA (Gibco). Suspension” for “Suspension”
as §4, §5, §3, §6

Hep3B2 (FGFR3/4+++) = assay: In vitro growth inhibition of Hep3B2 tumor cells (MTT/CCK8); type: cell-based, Human; conditions: Homo sapiens, Hep3B; in vitro growth inhibition (or induction of apoptosis), cells cultured 3 to 5 days, MTT (CCK8); read-out: IC50 Hep3B2 (FGFR3/4+++)
DMS114 = assay: In vitro growth inhibition of DMS114 cells; type: cell-based; conditions: Homo sapiens, DMS-114, FGFR1 amp
Procedure: as §1, with “Adherent cells were digested with 0.25% trypsin-EDTA (Gibco). Suspension” for “Suspension”
as §4, §5, §3, §6

MDA-MB-453 = assay: In vitro growth inhibition of MDA-MB-453 cells; type: cell-based; conditions: Homo sapiens, PI3KCA H1047R, FGFR4+++/Y367C
Procedure: as §1, with “Adherent cells were digested with 0.25% trypsin-EDTA (Gibco). Suspension” for “Suspension”
as §4, §5, §3, §6

H1703 (PDGFRa amp) = assay: In vitro growth inhibition of H1703 tumor cells (MTT/CCK8); type: cell-based, Human; conditions: Homo sapiens, NCI-H1703; in vitro growth inhibition (or induction of apoptosis), cells cultured 3 to 5 days, MTT (CCK8); read-out: IC50 H1703 (PDGFRa amp)
RT112/84 = assay: In vitro growth inhibition of RT112/84 cells; type: cell-based; conditions: Homo sapiens, FGFR3-TACC3
Procedure: as §1, with “Adherent cells were digested with 0.25% trypsin-EDTA (Gibco). Suspension” for “Suspension”
as §4, §5, §3, §6

JHH-7 = assay: In vitro growth inhibition of JHH-7 cells; type: cell-based; conditions: Homo sapiens, JHH7, FGFR3+++, FGFR4 +++
Procedure: as §1, with “Adherent cells were digested with 0.25% trypsin-EDTA (Gibco). Suspension” for “Suspension”
as §4, §5, §3, §6

KATO III (FGFR2 amp) = assay: In vitro growth inhibition of KATO III tumor cells (MTT/CCK8); type: cell-based, Human; conditions: Homo sapiens, KATO III; in vitro growth inhibition (or induction of apoptosis), cells cultured 3 to 5 days, MTT (CCK8); read-out: IC50 KATO III (FGFR2 amp)
A375 = assay: In vitro growth inhibition of A375 cells; type: cell-based; conditions: Homo sapiens, A-375, BRAF V600E, FGFR2 mutant
Procedure: as §1, with “Adherent cells were digested with 0.25% trypsin-EDTA (Gibco). Suspension” for “Suspension”
as §4, §5, §3, §6

Hep G2 = assay: In vitro growth inhibition of Hep G2 cells; type: cell-based; conditions: Homo sapiens, HepG2, FGFR3+++, FGFR4 +++
Procedure: as §1, with “Adherent cells were digested with 0.25% trypsin-EDTA (Gibco). Suspension” for “Suspension”
as §4, §5, §3, §6

AN3-CA = assay: In vitro growth inhibition of AN3-CA cells; type: cell-based; conditions: Homo sapiens, FGFR2 mutant
Procedure: as §1, with “Adherent cells were digested with 0.25% trypsin-EDTA (Gibco). Suspension” for “Suspension”
as §4, §5, §3, §6

Cal-120 = assay: In vitro growth inhibition of Cal-120 cells; type: cell-based; conditions: Homo sapiens, FGFR1 amp
Procedure: as §1, with “Adherent cells were digested with 0.25% trypsin-EDTA (Gibco). Suspension” for “Suspension”
as §4, §5, §3, §6

MOLM-13 (FLT3-ITD) = assay: In vitro growth inhibition of MOLM-13 tumor cells (MTT/CCK8); type: cell-based, Human; conditions: Homo sapiens, MOLM-13; in vitro growth inhibition (or induction of apoptosis), cells cultured 3 to 5 days, MTT (CCK8); read-out: IC50 MOLM-13 (FLT3-ITD)
PLC/PRF/5 = assay: In vitro growth inhibition of PLC/PRF/5 cells; type: cell-based; conditions: Homo sapiens, FGFR3+++, FGFR4 +++
Procedure: as §1, with “Adherent cells were digested with 0.25% trypsin-EDTA (Gibco). Suspension” for “Suspension”
as §4, §5, §3, §6

- IC50 (HGC-27): 17.3 nM
- IC50 (HCT116): 65.1 nM
- IC50 (SK-OV-3): 10.2 nM
- IC50 (SW48): 27.5 nM
- IC50 (HCC1954): 6.8 nM
- IC50 (A2780): 9.67 nM
- IC50 (AGS): 39.5 nM
- IC50 (KYSE70): 19.7 nM
- IC50 (NCI-H460): 30.4 nM
Compound: COc1c(OCCCN2CCOCC2)ccc2c1N=C(NC(=O)c1cnc(N)nc1)N1CCN=C21 [BAY 80-6946, reference compound]

- IC50 (Huh-7): 7.12 nM
- IC50 (KCL-22 (BCR-ABL)): 16.4 nM
- IC50 (Kasumi-1 (KIT N822K)): 44 nM
- IC50 (H1581 (FGFR1 amp)): 9.7 nM
- IC50 (Karpas 299 (NPM-ALK)): 600 nM
- IC50 (SNU-16): 1.95 nM
- IC50 (Hep3B2 (FGFR3/4+++)): 14.2 nM
- IC50 (MDA-MB-453): 309 nM
- IC50 (H1703 (PDGFRa amp)): 13.5 nM
- IC50 (KATO III (FGFR2 amp)): 0.24 nM
- IC50 (A375): 129 nM
- IC50 (MOLM-13 (FLT3-ITD)): 19.1 nM
Compound: COc1cc2nccc(Oc3ccc(NC(=O)Nc4cc(C(C)(C)C)n[nH]4)c(Cl)c3)c2cc1C(N)=O [Compound 25, 4-{4-[3-(5-tert-butyl-2H-pyrazol-3-yl)-ureido]-3-chloro-phenoxy}-7-methoxyquinolin-6-carboxamide]
- IC50 (JIMT-1): 467 nM
- IC50 (MFM-223): 21.6 nM
- IC50 (DMS114): 15.6 nM
- IC50 (RT112/84): 31.5 nM
- IC50 (JHH-7): 4.88 nM
- IC50 (Hep G2): 127 nM
- IC50 (AN3-CA): 4.95 nM
- IC50 (Cal-120): 64.7 nM
- IC50 (PLC/PRF/5): 2.95 nM
